The values below come from ChEMBL document CHEMBL1201862, “PubChem BioAssay data set” (2004).

Among the test systems are 786-0; CCRF-CEM; EKVX; HCT-15; HOP-62; HOP-92; HT-29; KM12; OVCAR-4; OVCAR-5; SF-539; SK-OV-3; SNB-19; SNB-75; TK-10; NCI-H522.
Assay in all cases: NCI anticancer screen, dose series, 48 h

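Grown in 96-well plates, cells were treated for 48 hours with each compound at five concentrations. Insufficient inhibition: endpoint recorded as highest concentration tested. GI50 is the concentration that inhibits growth by half.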 Activity calls are given as the source filed them. Cut-off read from the data, not from the text of the source: active = GI50 up to about 1.1 µM and inactive = higher. Bounds are passed on as bounds.

On to `N#CC1C[C@@H]2CC3(CCC2CN1C(=O)c1ccccc1)OCCO3` (stereo partly drawn), for which the GI50 in the assay on 786-0 was > 100 µM (inactive); with CCRF-CEM, > 100 µM (inactive); in the assay on EKVX, > 100 µM (inactive); with HCT-15, above 100 µM; in the assay on HOP-62, > 100 µM (inactive); in the assay on HOP-92 it was > 100 µM (inactive). Besides, the GI50 in the assay on HT-29, in the assay on KM12, in the assay on OVCAR-4, in the assay on OVCAR-5, in the assay with SF-539 and in the assay with SK-OV-3 was > 100 µM (inactive) in each case. Besides, the GI50 in the assay on SNB-19, in the assay with SNB-75 and in the assay with TK-10 was > 100 µM (inactive) in each case.
With `Clc1ccc(C2=NOC(C3CCCCC3)C2)cc1` (stereo not drawn), the GI50 with 786-0 was > 100 µM (inactive); in the assay on CCRF-CEM it was > 100 µM (inactive); in the assay with HCT-15, above 100 µM; with HOP-62, > 100 µM (inactive); with HOP-92 it was > 100 µM (inactive); with HT-29, > 100 µM (inactive). The GI50 in the assay on KM12, in the assay on NCI-H522, in the assay on OVCAR-4, in the assay with OVCAR-5, in the assay on SF-539 and in the assay with SK-OV-3 was > 100 µM (inactive) each time. The GI50 in the assay on SNB-75 and in the assay on TK-10 was > 100 µM (inactive) in each case.
For `CCOC(=O)[C@H]1CSC[C@@H](C(=O)OC)N1`, the GI50 in the assay on 786-0 was > 100 µM (inactive); with CCRF-CEM, > 100 µM (inactive); in the assay on EKVX it was > 100 µM (inactive); in the assay on HCT-15 it was above 100 µM; in the assay with HOP-62 it was > 100 µM (inactive); in the assay with HT-29, > 100 µM (inactive). The GI50 in the assay with KM12, in the assay on NCI-H522, in the assay on OVCAR-4, in the assay on OVCAR-5, with SK-OV-3 and with SNB-19 was > 100 µM (inactive) in each case. Moreover, the GI50 in the assay with SNB-75 was 23.1 µM (inactive); with TK-10 it was > 100 µM (inactive).
Turning to `O=C(CP(=O)(O)O)c1cccs1`, the GI50 in the assay on 786-0 was > 100 µM (inactive); in the assay with CCRF-CEM, > 100 µM (inactive); in the assay with EKVX it was > 100 µM (inactive); in the assay on HCT-15 it was above 100 µM; with HOP-62, > 100 µM (inactive); in the assay with HOP-92, > 100 µM (inactive). Besides, the GI50 in the assay on HT-29, in the assay with KM12, in the assay with NCI-H522, with OVCAR-5, with SF-539 and in the assay on SK-OV-3 was > 100 µM (inactive) throughout. The GI50 in the assay on SNB-19, in the assay with SNB-75 and with TK-10 was > 100 µM (inactive) throughout.
In the case of `O=c1cc(-c2ccccc2)[nH]c2c(F)ccc(F)c12`, the GI50 in the assay on 786-0 was 79.6 µM (inactive); with CCRF-CEM, > 100 µM (inactive); in the assay on HCT-15 it was 26.7 µM; in the assay on HOP-62, 56 µM (inactive); with HOP-92, > 100 µM (inactive); in the assay on HT-29, 33.5 µM (inactive). For the same compound, the GI50 is 18.5 µM (inactive) in the assay with KM12; 27.7 µM (inactive) with NCI-H522; > 100 µM (inactive) with OVCAR-4; 43.9 µM (inactive) in the assay with OVCAR-5; 52.8 µM (inactive) in the assay with SF-539; > 100 µM (inactive) in the assay with SK-OV-3. Besides, the GI50 with SNB-75 was 15 µM (inactive); in the assay on TK-10, 61.9 µM (inactive).
Take `O=C(NCCCCCCCCCCCCNC(=O)c1cnc2ccccc2n1)c1cnc2ccccc2n1`: the GI50 was 31.7 µM (inactive) in the assay on 786-0; > 100 µM (inactive) with CCRF-CEM; > 100 µM (inactive) with EKVX; above 100 µM in the assay with HCT-15; 20.6 µM (inactive) in the assay with HOP-62; > 100 µM (inactive) with HT-29. Further, the GI50 was > 100 µM (inactive) in the assay on KM12; 19 µM (inactive) in the assay on NCI-H522; 13.6 µM (inactive) with OVCAR-4; 15.1 µM (inactive) in the assay with SF-539; 22.6 µM (inactive) in the assay on SK-OV-3; 14.8 µM (inactive) in the assay with SNB-19. For the same compound, the GI50 with SNB-75 is 20.8 µM (inactive).
In the case of `O=S1(=O)c2ccccc2NC(c2ccc3ccccc3c2)CC1c1ccccc1F` (stereo not drawn), the GI50 in the assay with 786-0 was > 100 µM (inactive); with CCRF-CEM it was > 100 µM (inactive); with EKVX, > 100 µM (inactive); in the assay with HCT-15, above 100 µM; in the assay with HOP-62, > 100 µM (inactive); in the assay on HT-29 it was > 100 µM (inactive). Besides, the GI50 in the assay on KM12, with NCI-H522, in the assay with OVCAR-4, in the assay on OVCAR-5, in the assay on SF-539 and with SK-OV-3 was > 100 µM (inactive) throughout. The GI50 with SNB-19, in the assay with SNB-75 and in the assay on TK-10 was > 100 µM (inactive) each time.
In the case of `CCOc1cc2c(cnc3c4cc(OC)c(OC)cc4ccc23)cc1OC`, the GI50 with 786-0 was > 100 µM (inactive); with CCRF-CEM, > 100 µM (inactive); in the assay on EKVX, > 100 µM (inactive); in the assay with HCT-15, above 100 µM; with HOP-62, > 100 µM (inactive); in the assay on HT-29, > 100 µM (inactive). Besides, the GI50 in the assay with KM12, in the assay with NCI-H522, with OVCAR-4, with OVCAR-5, in the assay with SF-539 and in the assay with SK-OV-3 was > 100 µM (inactive) in each case. Further, the GI50 with SNB-19, in the assay with SNB-75 and in the assay on TK-10 was > 100 µM (inactive) in each case.
For `Cc1cccc(C)c1NC(=O)CCCC(=O)C1CCC/C1=N\NC(=O)C(=O)NN` (stereo not drawn), the GI50 in the assay on 786-0 is > 100 µM (inactive); in the assay with CCRF-CEM, > 100 µM (inactive); in the assay with EKVX, > 100 µM (inactive); with HCT-15, above 100 µM; in the assay with HT-29, > 100 µM (inactive); in the assay with KM12 it was > 100 µM (inactive). In addition, the GI50 with OVCAR-4, in the assay with OVCAR-5, in the assay on SF-539, with SK-OV-3, in the assay on SNB-19 and in the assay on SNB-75 was > 100 µM (inactive) throughout. For the same compound, the GI50 in the assay with TK-10 is > 100 µM (inactive).
Regarding `CC(=O)Nc1ccc(/C=C2\N=C(c3ccccc3)OC2=O)cc1`, the GI50 with 786-0 is > 100 µM (inactive); with CCRF-CEM it was 33.1 µM (inactive); in the assay with EKVX, > 100 µM (inactive); in the assay with HCT-15 it was 55.7 µM; in the assay on HOP-62 it was > 100 µM (inactive); with HOP-92, 62.5 µM (inactive). Also, the GI50 in the assay on KM12 is 68.7 µM (inactive); with OVCAR-4, > 100 µM (inactive); in the assay on OVCAR-5 it was > 100 µM (inactive); in the assay with SK-OV-3 it was > 100 µM (inactive); in the assay on SNB-19 it was > 100 µM (inactive); with SNB-75, 64.9 µM (inactive). The GI50 in the assay with TK-10 is > 100 µM (inactive).
Take `O=C1CCSC2=C1SCc1sccc12`: the GI50 with 786-0 is > 100 µM (inactive); in the assay with CCRF-CEM, > 100 µM (inactive); with EKVX it was 93.5 µM (inactive); in the assay with HCT-15, above 100 µM; with HOP-62 it was > 100 µM (inactive); in the assay on HOP-92 it was > 100 µM (inactive). The GI50 with KM12, in the assay on NCI-H522, with OVCAR-4, with OVCAR-5, with SK-OV-3 and in the assay with SNB-19 was > 100 µM (inactive) each time. Also, the GI50 in the assay with SNB-75 is 30.5 µM (inactive); with TK-10, > 100 µM (inactive).
Consider `COc1ccccc1C1c2cc3c(cc2OC(O)(CO)C1C(=O)O)OCO3.COc1ccccc1C1c2cc3c(cc2OC2(O)COC(=O)C12)OCO3` (stereo not drawn), for which the GI50 with 786-0 is > 100 µM (inactive); with CCRF-CEM, 92.7 µM (inactive); in the assay with EKVX, > 100 µM (inactive); in the assay with HCT-15, above 100 µM; with HOP-62 it was > 100 µM (inactive); in the assay with HOP-92 it was > 100 µM (inactive). Also, the GI50 in the assay with HT-29, in the assay with KM12, with OVCAR-4, in the assay on OVCAR-5, with SF-539 and in the assay with SK-OV-3 was > 100 µM (inactive) throughout. Further, the figures for the GI50 in the assay on SNB-75 and in the assay on TK-10 were 26.9 µM (inactive) and > 100 µM (inactive), respectively.
Turning to `CCOC(=O)/C=C/c1ccccn1`, the GI50 was > 100 µM (inactive) in the assay on 786-0; > 100 µM (inactive) with CCRF-CEM; > 100 µM (inactive) in the assay on EKVX; above 100 µM in the assay on HCT-15; > 100 µM (inactive) in the assay on HOP-62; > 100 µM (inactive) in the assay with HOP-92. The GI50 in the assay on HT-29, with KM12, with NCI-H522, with OVCAR-4, in the assay with OVCAR-5 and in the assay on SF-539 was > 100 µM (inactive) in each case. The GI50 with SK-OV-3, in the assay on SNB-75 and with TK-10 was > 100 µM (inactive) each time.
In the case of `COc1ccc2c(c1)CCc1cnn(C3OC(COC(C)=O)C(OC(C)=O)C(OC(C)=O)C3OC(C)=O)c1-2` (stereo not drawn), the GI50 in the assay with 786-0 was 28.2 µM (inactive); in the assay with CCRF-CEM, 15 µM (inactive); in the assay with EKVX, 49 µM (inactive); in the assay with HCT-15 it was 38.2 µM; in the assay with HOP-62 it was > 100 µM (inactive); in the assay with HOP-92, 27.3 µM (inactive). Besides, the GI50 with HT-29 was 37.2 µM (inactive); in the assay on KM12 it was > 100 µM (inactive); with NCI-H522 it was 17 µM (inactive); with OVCAR-5 it was > 100 µM (inactive); in the assay with SF-539, > 100 µM (inactive); in the assay with SNB-19, > 100 µM (inactive). Moreover, the GI50 in the assay with SNB-75 was 36.6 µM (inactive); in the assay with TK-10 it was > 100 µM (inactive).
